From PMC10970644, “Molecular Pharmacology of Gelsemium Alkaloids on Inhibitory Receptors” (International Journal of Molecular Sciences, 2024)

Tests used:
[1] = in vivo studies; cited from earlier work
α1 GlyR = molecular target: T1, α1 GlyR (Rattus norvegicus, UniProt P07727); experiment: cell-based; type: cell-based
T1 construct: expressed in transfected cells; host or cells: HEK293 (ATCC CRL-1573)
T1 sequence (P07727 29-457): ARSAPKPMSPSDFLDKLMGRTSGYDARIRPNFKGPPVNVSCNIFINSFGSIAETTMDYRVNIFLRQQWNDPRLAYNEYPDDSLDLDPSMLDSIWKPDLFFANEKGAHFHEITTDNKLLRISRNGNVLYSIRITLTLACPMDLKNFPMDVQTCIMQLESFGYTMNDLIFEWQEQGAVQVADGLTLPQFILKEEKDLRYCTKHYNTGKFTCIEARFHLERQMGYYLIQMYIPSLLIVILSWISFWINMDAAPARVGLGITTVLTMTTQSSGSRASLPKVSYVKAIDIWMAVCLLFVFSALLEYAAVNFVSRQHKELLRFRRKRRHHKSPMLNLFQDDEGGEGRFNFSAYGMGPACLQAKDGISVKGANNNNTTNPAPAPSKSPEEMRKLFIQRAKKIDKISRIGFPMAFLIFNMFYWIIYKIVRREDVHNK
Method: (§1) The cells were transfected with plasmids encoding the following proteins: (i). rat GlyR α (1, 2, 3) subunits alone or combined with rat β subunits (Uniprot Accession Numbers: Q546L7, P22771, P20236, P20781); and (ii). rat GABAAR α1 combined with rat β2 and γ2 subunits (Uniprot Accession Numbers: P62813, P63138, P18508). The EGFP expression was used as a marker of successful protein expression. The transfection was performed using Lipofectamine 2000 (Invitrogen, ThermoFisher, Carlsbad, CA, USA) using the fabricant protocol. The plasmids used to express GlyRs and GABAARs have been previously described. To track the successful expression of GlyR β subunits and the GABAA γ2 or β2 subunit, these proteins were subcloned in the pIRES2-EGFP vector. The transfection ratio to obtain β-containing GlyRs was 1:5 of α:β, while the expression of γ2-containing GABAA receptors was 1:2:5 of α:β:γ2 [14, 15]. Chimeric GlyRs were described in a previous report. Site directed mutagenesis was performed by Charm Gene Science Mutagenex LLC. (Cumming, GA, USA). All the constructs were checked by full-length sequencing (SNPSaurus, Eugene, OR, USA).
(§2) In brief, patch electrodes (3–4 MΩ) were pulled from borosilicate glasses in a PC-100 puller (Narishige, Tokyo, Japan); then, they were filled with an intracellular solution, which contained (in mM) 120 CsCl, 8 EGTA, 10 HEPES (pH 7.4), 4 MgCl2, 0.5 GTP, and 2 ATP. The extracellular solution contained (in mM) 140 NaCl, 5.4 KCl, 2.0 CaCl2, 1.0 MgCl2, 10 HEPES (pH 7.4), and 10 glucose. Whole-cell patch-clamp recordings were performed at −60 mV with an Axoclamp 200B (Molecular Devices, Sunnyvale, CA, USA) or with HEKA EPC-10 (HEKA Elektronik GmbH, Reutlingen, Germany) amplifiers. […] Brief (3–5 s) pulses of agonist together with alkaloids were applied to cells. Stock solutions of the alkaloids were prepared in high purity distilled water. Aliquots of these stock solutions were diluted in reservoirs containing extracellular solution. […] The concentration–response curve parameters for the alkaloid inhibition (IC50, nH, and the maximal current inhibition) were obtained from the fitted curve of normalized concentration–response data points to the equation Iagonist = Imax (agonist)nH/((agonist)nH + (EC50)nH). The IC50 curves are best-fit mean ± SE from pooled data. […] The inhibition constant (Ki) was calculated using the Cheng–Prusoff equation (Ki = IC50/((2 + ([Agonist]/EC50)^nH)^1/nH − 1). The concentration of agonist corresponds to the sub-saturating agonist concentration used to obtain the IC50 for each alkaloid on a given GlyR subtype.

α2 GlyR = molecular target: T2, α2 GlyR (Rattus norvegicus, UniProt P22771); experiment: cell-based; type: cell-based
T2 construct: The cells were transfected with plasmids encoding the following proteins; expressed in transfected cells; host or cells: HEK293 (ATCC CRL-1573)
T2 sequence (P22771 28-452): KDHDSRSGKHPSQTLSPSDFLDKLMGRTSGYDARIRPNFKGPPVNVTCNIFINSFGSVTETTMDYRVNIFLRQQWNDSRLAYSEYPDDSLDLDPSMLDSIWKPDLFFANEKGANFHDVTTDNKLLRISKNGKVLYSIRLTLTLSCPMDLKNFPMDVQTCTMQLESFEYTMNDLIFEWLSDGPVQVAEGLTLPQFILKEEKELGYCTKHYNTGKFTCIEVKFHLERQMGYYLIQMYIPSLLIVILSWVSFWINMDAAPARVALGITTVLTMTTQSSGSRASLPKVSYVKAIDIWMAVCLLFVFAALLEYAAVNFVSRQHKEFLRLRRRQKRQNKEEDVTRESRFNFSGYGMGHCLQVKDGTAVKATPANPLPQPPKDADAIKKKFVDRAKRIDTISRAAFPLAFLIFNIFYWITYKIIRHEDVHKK
Method: as §1, §2

α3 GlyR = molecular target: T3, α3 GlyR (Rattus norvegicus, UniProt P24524); experiment: cell-based; type: cell-based
T3 construct: expressed in transfected cells; host or cells: HEK293 (ATCC CRL-1573)
T3 sequence (P24524 34-464): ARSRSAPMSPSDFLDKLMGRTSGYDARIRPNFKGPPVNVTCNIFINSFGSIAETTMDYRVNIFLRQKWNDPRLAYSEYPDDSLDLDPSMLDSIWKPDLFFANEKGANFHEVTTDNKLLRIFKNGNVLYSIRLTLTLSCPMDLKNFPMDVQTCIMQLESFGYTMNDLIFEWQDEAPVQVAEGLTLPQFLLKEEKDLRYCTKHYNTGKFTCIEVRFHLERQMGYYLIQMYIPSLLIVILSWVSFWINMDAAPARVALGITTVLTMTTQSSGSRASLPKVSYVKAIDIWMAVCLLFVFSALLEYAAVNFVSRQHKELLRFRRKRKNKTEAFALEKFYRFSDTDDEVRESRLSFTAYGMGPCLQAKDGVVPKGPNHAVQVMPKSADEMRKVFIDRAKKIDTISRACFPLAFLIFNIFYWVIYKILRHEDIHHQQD
Method: as §1, §2

α2β GlyR = molecular target: T4, α2β GlyR (Rattus norvegicus, UniProt P20781+P22771); experiment: cell-based; type: cell-based
T4 construct: The cells were transfected with plasmids encoding the following proteins; expressed in transfected cells; host or cells: HEK293 (ATCC CRL-1573)
T4 sequence (P20781 23-496, one chain of several): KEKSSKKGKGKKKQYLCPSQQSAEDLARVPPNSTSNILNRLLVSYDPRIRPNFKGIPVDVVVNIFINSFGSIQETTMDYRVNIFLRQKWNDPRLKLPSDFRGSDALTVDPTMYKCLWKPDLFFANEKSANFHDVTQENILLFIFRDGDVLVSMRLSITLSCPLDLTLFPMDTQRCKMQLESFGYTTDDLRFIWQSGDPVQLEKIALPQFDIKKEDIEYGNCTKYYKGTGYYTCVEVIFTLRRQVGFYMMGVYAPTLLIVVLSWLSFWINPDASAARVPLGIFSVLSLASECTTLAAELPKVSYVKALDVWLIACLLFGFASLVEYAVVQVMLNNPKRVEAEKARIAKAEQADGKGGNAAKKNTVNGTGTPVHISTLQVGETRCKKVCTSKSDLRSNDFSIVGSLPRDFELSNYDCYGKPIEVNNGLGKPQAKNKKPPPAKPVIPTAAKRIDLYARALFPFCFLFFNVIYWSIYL
Method: as §1, §2

[2] = Hill coefficient of inhibition curve
[3] = calculated using the Cheng–Prussof equation
[4] = percentage change of glycine-evoked current

| Compound | LD50 [1] | effect on glycine-evoked currents (in words) (α1 GlyR; wild-type, 10 μM gelsemine, 35 μM glycine) | effect on glycine-evoked currents (in words) (α2 GlyR; wild-type, 50 μM gelsemine, 60 μM glycine) | EC50 (α2 GlyR; read-out: EC50 of agonist) [µM] | EC50 (α3 GlyR; read-out: EC50 of agonist) [µM] | EC50 (α2β GlyR; read-out: EC50 of agonist) [µM] | IC50 (α1 GlyR) [µM] | nH (α1 GlyR; [2]) | Ki (α1 GlyR; [3]) [µM] | Maximal Modulation (α1 GlyR; [4]) [%] | IC50 (α2 GlyR) [µM] | nH (α2 GlyR; [2]) | Ki (α2 GlyR; [3]) [µM] | IC50 (α3 GlyR) [µM] | nH (α3 GlyR; [2]) | Ki (α3 GlyR; [3]) [µM] | Maximal Modulation (α3 GlyR; [4]) [%] | IC50 (α2β GlyR) [µM] | nH (α2β GlyR; [2]) | Ki (α2β GlyR; [3]) [µM] |
| --- | --- | --- | --- | --- | --- | --- | --- | --- | --- | --- | --- | --- | --- | --- | --- | --- | --- | --- | --- | --- |
| C=C[C@]12CN(C)[C@@H]3[C@H]4CO[C@H](C[C@H]41)[C@]1(C(=O)Nc4ccccc41)[C@@H]32 [gelsemine] | higher than 50 mg/kg | potentiated | inhibited | – | – | – | – | – | – | – | – | – | – | – | – | – | – | – | – | – |
| NCC(=O)O [glycine, reference compound] | – | – | – | 91 ± 6 | 150 ± 10 | 105 ± 9 | – | – | – | – | – | – | – | – | – | – | – | – | – | – |
| C=C[C@@]12CN(C)[C@H]3C[C@]14C(=Nc1ccccc14)[C@H]1C[C@@H]2[C@@H]3CO1 [koumine] | higher than 50 mg/kg | – | – | – | – | – | 31.5 ± 1.7 | 1.7 ± 0.1 | 53.1 ± 17.1 | −95.0 ± 1.5 | 11.2 ± 2.1 | 1.0 ± 0.2 | 44.2 ± 4.6 | 15.8 ± 4.6 | 0.9 ± 0.2 | 33.9 ± 15.8 | −87.3 ± 4.0 | 23.6 ± 8.3 | 1.3 ± 0.6 | 57.4 ± 4 |
